Test results as given in patent US20150010651A1, “Compositions and methods for the treatment of wounds” (priority 2009, published 2015).
Values joined by “and” are separate entries in the source; they are usually repeats but may differ in a detail not shown here. Identical values can stand only once. “Also recorded” adds a separate entry of the source.

Legend:
[1] = system: diabetic ulcers; conditions: patients with diabetic ulcers; control group 45 days; cited from earlier work
[2] = system: diabetic ulcer (non-healing wound); assay: Case studies: powdered wound composition applied topically to infected non-healing wounds / diabetic ulcers of patients; assay type: in vivo, human
From the text: Thereafter, the wound compositions may be applied to the wound at least once a week until such time as the wound is satisfactorily healed. In one embodiment, a wound composition is applied once a week (after the initial daily application) for a period of at least seven weeks. It is understood that prior to each application, the wound may be rinsed with a sterile solution, such as saline, and allowed to dry. Thereafter, a wound composition may be applied and the wound wrapped in a suitable dressing.
A treatment plan was established for the patient. Under the treatment plan, the patient received: 1) Insulin 70/30 (Novoline) 50 IU morning, 25 IU night; and 2) intravenueously, Co-Amoxiclav 1.2 g+Gentamicin 80 mg+Metronidazole 400 mg in 100 ml N Saline/30 min (every 8 hours). After the injection of the intravenous antibiotics, the patient began taking oral antibiotics: 1) Co-Amoxiclav 625 mg (2 tablets) (twice daily); 2) Ciprofloxacin 500 mg once daily for 2 weeks; and 3) Ibuprofen 600 mg for 5 days (every 8 hours). Thereafter, the wound was cleaned with saline solution. A wound composition comprising a mixture of 300 mg powdered phenyloin (Dilantin®) and 500 mg of powdered Vitamin C was administered over the wound and the wound was dressed. The patient was advised to come back on a daily basis for dressing of the wound and reapplication of the wound composition.
(§1) The patient returned for 9 consecutive visits over the next nine days. Thereafter, the patient began weekly visits. With each visit, the wound was cleaned with saline solution and the powdered wound composition was applied topically to the wound, and redressed.
A treatment plan was established for the patient. Under the treatment plan, the patient received: 1) Insulin 70/30 (Novoline) 40 IU morning, 20IU night; and 2) intravenueously, Co-Amoxiclav 1.2 g+Gentamicin 80 mg+Metronidazole 400 mg in 100 ml N Saline/30 min. every 8 hours. After the injection of the intravenous antibiotics, the patient began taking oral antibiotics: 1) Co-Amoxiclav 625 mg (2 tablets) twice daily 2) Ciprofloxacin 500 mg once daily for 2 weeks; and 3) Ibuprofen 600 mg every 8 hours.; and (4) Co-diovan tablets (valsartan and hydrochlorothiazide) 80 mg/12.5 mg daily. Thereafter, the wound was cleaned with saline solution. A wound composition comprising 300 mg powdered phenyloin (Dilantin®) was administered over the wound and the wound was dressed. The patient was advised to come back on a daily basis for dressing of the wound and reapplication of the wound composition.
as §1, with “redressed. […] No further treatment was prescribed to the patient.” for “redressed.”

[3] = one patient per Example, topical, weekly application, week 8

Structure (SMILES): O=C1NC(=O)C(c2ccccc2)(c2ccccc2)N1 [phenyloin, 5.5-diphenyl-2,4-imidazolidinedione]
- mean healing time [1]: 21 days
- portion of the wound healed ([2]; Example 16 patient, topical, weekly application, week 13): approximately 60%
- appearance of the wound ([2]; Example 16 patient, topical, weekly application, weeks 3-5): continued to appear generally healthy
- recurrence of the wound after healing ([2]; one patient per Example, Dilantin alone): the wound returned in substantially the same location; also recorded: the wound returned in approximately the same location
- time the wound took to heal completely ([2]; one patient per Example, Dilantin alone, topical): approximately 20 weeks and ~27 weeks and ~22 weeks and approximately 25 weeks
- amputation outcome ([2]; one patient per Example, after treatment course): need to amputate the right leg below the knee; also recorded: need to amputate the left leg below the knee
- new skin formation (wound healing by secondary intention) ([2]; one patient per Example, topical, daily visits for 9 days then weekly, week 1): signs of new skin formation
- granulation tissue formed [2, 3]: approximately 20%
- portion of the wound healed [2, 3]: approximately 35%; also recorded: approximately 25%
- portion of the wound healed ([2]; one patient per Example, topical, weekly application, week 9): approximately 40%
- portion of the wound healed ([2]; one patient per Example, topical, weekly application, week 10): approximately 60%
- appearance of the wound ([2]; one patient per Example, topical, weekly application, weeks 2-4): continued to appear generally healthy
- healing of the wound as noted ([2]; one patient per Example, topical, weekly application, weeks 5-7): beginning to heal very well, but was very slow healing
